Source: PMC4433323, “Structural and Kinetic Characterization of Thymidine Kinase from Leishmania major” (PLoS Neglected Tropical Diseases, 2015)
Where “and” joins values, the source holds several entries; their conditions need not be identical. Equal entries are not always repeated. Where two headings read alike, the source gives them in different places. Marks after values point to notes of the source that are not given here.

What was measured:
[1] = target: T1, LmTK (Leishmania major, UniProt Q4QC75); assay: TK activity, enzyme coupled spectrophotometric assay (substrate kinetics); assay type: biochemical; details: for kcat / Vmax / Km: recombinant full-length LmTK; for Vmax / Km: 25°C, pH 7.4; for Activity measurements at 10 mM substrate concentration (Vmax) / rate of phosphorylation by LmTK, fold lower than the Vmax value exhibited by TbTK: 10 mM substrate
Procedure: (§1) TK activity was measured spectrophotometrically using an enzyme coupled assay in buffer containing 50 mM Tris-HCl pH 7.4, 5 mM MgCl2, 50 mM KCl, 1 mM DTT, 0.5 mM ATP, 0.5 mM phosphoenolpyruvate (PEP), 0.2 mM NADH, 0.2 mM thymidine (dThd), 2 U pyruvate kinase (PK), 4 U lactate dehydrogenase (LDH) and variable amounts of enzyme. The reaction rate (AU/min) was registered as a decrease in absorbance at 340nm (NADH extinction coefficient) at 25°C at pH 7.4 using a multicell Hewlett-Packard 8452 diode array UV-VIS spectrophotometer. Diluted stocks of frozen full-length LmTK were freshly prepared in assay buffer before the measurements. […]

[2] = tested on: hTK1; set-up: method as in Munch-Peterson et al. [43]; details: 37°C; ref Munch-Peterson et al. [43]; cited from earlier work
[3] = target: T1, LmTK; assay: TK activity, enzyme coupled spectrophotometric assay (substrate kinetics); assay type: biochemical; details: saturating dThd (25 μM)
[4] = tested on: Leishmania intracellular amastigote; set-up: method as in PMID 20922414; details: cited from earlier work
[5] = target: T1, LmTK; assay: Inhibition assay of LmTK activity; assay type: biochemical; details: for IC50: 22.3 nM LmTK, pH 7.4
Procedure: TK activity was measured spectrophotometrically using an enzyme coupled assay in buffer containing 50 mM Tris-HCl pH 7.4, 5 mM MgCl2, 50 mM KCl, 1 mM DTT, 0.5 mM ATP, 0.5 mM phosphoenolpyruvate (PEP), 0.2 mM NADH, 0.2 mM thymidine (dThd), 2 U pyruvate kinase (PK), 4 U lactate dehydrogenase (LDH) and variable amounts of enzyme. The reaction rate (AU/min) was registered as a decrease in absorbance at 340nm (NADH extinction coefficient) at 25°C at pH 7.4 using a multicell Hewlett-Packard 8452 diode array UV-VIS spectrophotometer. Diluted stocks of frozen full-length LmTK were freshly prepared in assay buffer before the measurements.
The method consists in determining experimental values for the initial velocities, v, as described above, at increasing inhibitor concentrations, added before initiating the reaction. LmTK and dThd concentrations were 22.3 nM and 25 μM respectively. The concentration of inhibitor that inhibits the activity by 50% (IC50) was calculated.

[6] = target: hTK1; set-up: method as in PMID 3457791; details: cited from earlier work
[7] = target: T1, LmTK; assay: Inhibition assay of LmTK activity; assay type: biochemical
[8] = tested on: TK from rat liver; set-up: method as in PMID 4539354; details: similar conditions (equimolar dTTP and dThd); cited from earlier work
[9] = target: the molecule itself; assay: AUC; sedimentation velocity, unliganded C-terminally His-tagged LmTK (dTTP dialysed away), 0.15 and 0.45 mg/mL, SEC buffer (10 mM Tris pH 8.0, 200 mM NaCl, 1 mM DTT), 42 000 rpm, 20°C; c(s) analysis with SEDFIT
[10] = target: the molecule itself; assay: crystal structure; LmTK-dThd (with phosphate), 1.4 M Na/K PO4 pH 5.4, 1 mM dThd, 1 mM AppNHp, 3 mM MgCl2; space group P6(5)22, 2 protomers per asymmetric unit, 2.74 Å
[11] = substrate: Cc1cn([C@H]2C[C@H](O)[C@@H](CO)O2)c(=O)[nH]c1=O; assay: TK activity, enzyme coupled spectrophotometric assay (substrate kinetics); assay type: biochemical, Leishmania major; details: other: recombinant full-length LmTK, 25°C, pH 7.4
Procedure: as §1

In the case of O=c1[nH]c(=O)n([C@H]2C[C@H](O)[C@@H](CO)O2)cc1Br [5Br-2’dU], the kcat [1] is reported as 3.47 s⁻¹, the Vmax [1] is reported as 6.17 ± 0.19 µmol/min/mg and the Km ([1]; read-out: KM) is reported as 2 µM and 2.05 µM.

With O=c1[nH]c(=O)n([C@H]2C[C@H](O)[C@@H](CO)O2)cc1CO [5CH2OH-2’dU] the “phosphorylation by LmTK (in words)” value [1] was “also phosphorylated”, the kcat [1] was 2.82 s⁻¹ and the Vmax [1] was 5.01 ± 1.30 µmol/min/mg. The Km ([1]; read-out: KM) was 96.7 ± 23.1 µM.

With O=c1[nH]c(=O)n([C@H]2C[C@H](O)[C@@H](CO)O2)cc1F [5F-2’dU] the kcat [1] was 4.66 s⁻¹, the Vmax [1] was 8.29 ± 1.12 µmol/min/mg and the Km ([1]; read-out: KM) was 5.7 µM and 5.72 µM. For the same molecule, the Km [2] was 2.2 µM, the Vmax [2] was 8.99 µmol/min/mg and the kcat [2] was 3.84 s⁻¹.

With C[C@H]1O[C@@H](n2cc(F)c(=O)[nH]c2=O)[C@H](O)[C@@H]1O [5F-5’dU] the “phosphorylation by LmTK (in words)” value [1] was “is not” and the “Activity measurements at 10 mM substrate concentration (Vmax)” value (“Activity measurements” below) [1] was 0.00 ^a μmol∙min^-1∙mg^-1.

In the case of Nc1ncnc2c1ncn2[C@@H]1O[C@H](COP(=O)(O)OP(=O)(O)OP(=O)(O)O)[C@@H](O)[C@H]1O [ATP], the “Hill coefficient (positive cooperativity)” value [3] is reported as 1.6 and the K0.5 ([3]; fit to Hill equation) is reported as 58.6 ± 2.4 µM.

With Cc1cn([C@H]2C[C@H](N=[N+]=[N-])[C@@H](CO)O2)c(=O)[nH]c1=O [AZT, 3’-azido-3’-deoxythymidine] the kcat [1] was 1.97 s⁻¹, the Km [1] was 3 µM and 3.04 µM and the Vmax [1] was 3.52 ± 0.56 µmol/min/mg. For the same molecule, the Km [2] was 0.6 µM, the Vmax [2] was 4.96 µmol/min/mg and the kcat [2] was 2.12 s⁻¹. The “Leishmania intracellular amastigote growth (in words)” value [4] was “inhibit Leishmania intracellular amastigote growth”.

In the case of Nc1ncnc2c1ncn2[C@@H]1O[C@H](CO)[C@@H](O)[C@H]1O [Ado, adenosine], the “Activity measurements” value [1] is reported as 0.00 ^a μmol∙min^-1∙mg^-1 and the “inhibition of LmTK” value ([5]; tested at 5 mM) is reported as “no inhibition”.

In the case of Cc1cn([C@H]2C[C@H](O)[C@@H](COP(=O)(O)OP(=O)(O)OP(=O)(O)OP(=O)(O)OP(=O)(O)OC[C@H]3O[C@@H](n4cnc5c(N)ncnc54)[C@H](O)[C@@H]3O)O2)c(=O)[nH]c1=O [Ap5dT, P1-(5-adenosyl)-P5-(5-thymidyl) pentaphosphate], the IC50 ([5]; 25 μM dThd, 0.5 mM ATP) is listed as 1.1 µM and the Ki [6] is listed as 0.12 µM.

In the case of Nc1ccn([C@@H]2O[C@H](CO)[C@@H](O)[C@H]2O)c(=O)n1 [Cyd], the “Activity measurements” value [1] is reported as 0.00 ^a μmol∙min^-1∙mg^-1.

For Nc1nc2c(ncn2[C@@H]2O[C@H](CO)[C@@H](O)[C@H]2O)c(=O)[nH]1 [Guo], the “Activity measurements” value [1] was 0.00 ^a μmol∙min^-1∙mg^-1.

With O=c1ccn([C@@H]2O[C@H](CO)[C@@H](O)[C@H]2O)c(=O)[nH]1 [Urd] the kcat [1] was 0.44 s⁻¹, the Vmax [1] was 0.79 ± 0.12 µmol/min/mg and the Km ([1]; read-out: KM) was 1460 ± 158 µM.

With Nc1ncnc2c1ncn2C1CC(O)C(CO)O1 (stereo not drawn) [dAdo] the “Activity measurements” value [1] was 0.01 ^a μmol∙min^-1∙mg^-1 and the “rate of phosphorylation by LmTK, fold lower than the Vmax value exhibited by TbTK” value [1] was 6 fold.

Work on Nc1ccn([C@H]2C[C@H](O)[C@@H](COP(=O)(O)OP(=O)(O)OP(=O)(O)O)O2)c(=O)n1 [dCTP] yielded an IC50 ([5]; 25 μM dThd, 0.5 mM ATP) of 1250 µM.

For Nc1ccn([C@H]2C[C@H](O)[C@@H](CO)O2)c(=O)n1 [dCyd], the “Activity measurements” value [1] was 0.07 ^a μmol∙min^-1∙mg^-1.

For Nc1nc2c(ncn2[C@H]2C[C@H](O)[C@@H](COP(=O)(O)OP(=O)(O)OP(=O)(O)O)O2)c(=O)[nH]1 [dGTP], the IC50 ([5]; 25 μM dThd, 0.5 mM ATP) was 549 µM.

With Nc1nc2c(ncn2[C@H]2C[C@H](O)[C@@H](CO)O2)c(=O)[nH]1 [dGuo] the “Activity measurements” value [1] was 0.04 ^a μmol∙min^-1∙mg^-1 and the “rate of phosphorylation by LmTK, fold lower than the Vmax value exhibited by TbTK” value [1] was 10 fold.

With O=c1[nH]cnc2c1ncn2[C@H]1C[C@H](O)[C@@H](CO)O1 [dIno] the “Activity measurements” value [1] was 0.04 ^a μmol∙min^-1∙mg^-1 and the “rate of phosphorylation by LmTK, fold lower than the Vmax value exhibited by TbTK” value [1] was 23 fold.

Cc1cn([C@H]2C[C@H](O)[C@@H](COP(=O)(O)O)O2)c(=O)[nH]c1=O [dTMP, thymidine monophosphate] showed an IC50 ([5]; 25 μM dThd, 0.5 mM ATP) of 165 µM.

With Cc1cn([C@H]2C[C@H](O)[C@@H](COP(=O)(O)OP(=O)(O)OP(=O)(O)O)O2)c(=O)[nH]c1=O [dTTP, 2'-deoxythymidine triphosphate] the “Hill coefficient (h) of inhibition” value ([5]; 25 μM dThd, 0.5 mM ATP) was 1.6, the IC50 ([5]; 25 μM dThd, 0.5 mM ATP) was 3.8 ± 0.07 µM and the “fold increase in the K0.5 value for ATP compared to absence of dTTP” value ([7]; 3.5 μM dTTP, ATP 50–500 μM, 25 μM dThd) was 5 fold. The enzyme inhibition ([7]; 0.2 mM dTTP, equimolar 0.2 mM dThd, 0.5 mM ATP) was 98% and the inhibition [8] was 87%.

In the case of Cc1cn([C@H]2C[C@H](O)[C@@H](CO)O2)c(=O)[nH]c1=O [dThd, 2’-deoxythymidine], the “KM fold lower than that reported for TbTK” value ([1]; comparison with TbTK ref 35) is reported as ~ 7 fold.

O=c1ccn([C@H]2C[C@H](O)[C@@H](COP(=O)(O)OP(=O)(O)OP(=O)(O)O)O2)c(=O)[nH]1 [dUTP] gave an IC50 ([5]; 25 μM dThd, 0.5 mM ATP) of 187 µM.

With O=c1ccn([C@H]2C[C@H](O)[C@@H](CO)O2)c(=O)[nH]1 [dUrd] the “KM fold higher than that for dThd” value [1] was “approximately 10 fold”, the kcat [1] was 3.06 s⁻¹ and the Vmax [1] was 5.45 ± 0.77 µmol/min/mg. The Km ([1]; read-out: KM) was 11.1 ± 2.7 µM, the Km [2] was 9 µM and the Vmax [2] was 11.87 µmol/min/mg. For the same molecule, the kcat [2] was 5.07 s⁻¹.

B1: C-terminally His-tagged truncated L. major thymidine kinase (LmTK), amino acids 2-185 (enzyme, L. major strain Friedlin, UniProt Q4QC75 2-185, looked up)
chain: FRGRIELIIGPMFAGKTTELMRRVKREIHARRSCFVIKYSKDTRYDEHNVASHDQLMLRAQAAVSQLTEVRDTWKRFDVLAIDEGQFFSDLVDFCNTAADAGKVVMVSALDGDYRRKPFGQICELVPYCEAVDKLTAVCMMCHEQPACFTRRTVNVEQQELIGGADMYIATCRECYSKQQLPSI
notes: Thymidine kinase of Leishmania major strain Friedlin (GeneDB LmjF.21.1210), C-terminally truncated version spanning amino acids 2-185; Non-cleavable C-terminal His tag; Stabilised with dTTP/MgCl2 or dThd/AppNHp/MgCl2; also called C-terminal histagged LmTK; LmTK-dTTP; source: Sf9 insect cells (baculovirus), purified (HisTrap, Superdex 200 SEC); not shown: His6, C-terminal, kept
With B1 the “stoichiometry N” value [9] was 4.

B2: Truncated L. major thymidine kinase (LmTK), amino acids 2-185, as crystallised with dThd/AppNHp and with AP5dT (enzyme, L. major strain Friedlin, UniProt Q4QC75 2-185, looked up)
chain: FRGRIELIIGPMFAGKTTELMRRVKREIHARRSCFVIKYSKDTRYDEHNVASHDQLMLRAQAAVSQLTEVRDTWKRFDVLAIDEGQFFSDLVDFCNTAADAGKVVMVSALDGDYRRKPFGQICELVPYCEAVDKLTAVCMMCHEQPACFTRRTVNVEQQELIGGADMYIATCRECYSKQQLPSI
notes: Thymidine kinase of Leishmania major strain Friedlin (GeneDB LmjF.21.1210), C-terminally truncated version spanning amino acids 2-185; both preparations (each with dThd, AppNHp, MgCl2) were used for crystallization screening; also called LmTK-dThd; LmTK-dThd-AppNHp; source: Sf9 insect cells (baculovirus), purified (HisTrap, Superdex 200 SEC)
With B2 the “stoichiometry N” value [10] was 4.

B3: LmTK (Leishmania major) (protein)
chain: FRGRIELIIGPMFAGKTTELMRRVKREIHARRSCFVIKYSKDTRYDEHNVASHDQLMLRAQAAVSQLTEVRDTWKRFDVLAIDEGQFFSDLVDFCNTAADAGKVVMVSALDGDYRRKPFGQICELVPYCEAVDKLTAVCMMCHEQPACFTRRTVNVEQQELIGGADMYIATCRECYSKQQLPSIEEMRTQRMAIKEVEKRYLGLSDKRATASPQTPEKPAGGWCTKAGVATLPTMVKEGAASSGASAGMKSGRGLCEMQAFTTETPKYQRVEPACTASAASSE
B3 gave a Km [11] of 1.10 ± 0.33 µM, a Vmax [11] of 4.66 µmol/min/mg and a kcat [11] of 2.62 s⁻¹. The kcat/Km [11] was 2.38e+06 M⁻¹ s⁻¹.
